For experiment [1], the system named is SOCE (store operated calcium entry) in CHO cells. As to the kind of experiment: Assay of SOCE (store operated calcium entry)-inhibiting action. As to conditions: Cricetulus griseus, CHO, CHO cells, thapsigargin, read-out: SOCE level (percentage of inhibition); for inhibition at 10 µM: test compound 10 μmol; for inhibition at 30 µM: test compound 30 μmol; for inhibition at 100 µM: test compound 100 μmol. It counts as cell-based, Chinese hamster. As to the method: The extracellular fluid (i.e., medium) of cultured Chinese hamster ovary (CHO) cells was replaced by BSS containing no calcium. One minute later, a test compound was added. Two minutes later, 1 μM thapsigargin was added to cause depletion of the intracellular calcium store. Nine minutes later, calcium chloride (final concentration: 2 mM) was added to the extracellular fluid. The SOCE-inhibiting action levels at different compound concentrations after the addition of calcium chloride were determined as the percentage of inhibition (%) by evaluating the influence of the compound on the degree of increase in the intracellular calcium concentration.
(§1) Hereafter, the numerals in parentheses written after the TG level, the SOCE level, and the IICR level correspond to the test compound concentrations. The number following the name of each title compound used in the Examples below represents a compound ID number designated arbitrarily by the present inventors.

Experiment [2] has as its system IICR (IP3 induced calcium release) in CHO cells. As to the kind of experiment: Assay of IICR (IP3 induced calcium release)-inhibiting action. As to conditions: Cricetulus griseus, CHO, CHO cells, 10 μM ATP, read-out: IICR level (percentage of inhibition); for inhibition at 10 µM: test compound 10 μmol; for inhibition at 30 µM: test compound 30 μmol; for inhibition at 100 µM: test compound 100 μmol. It counts as cell-based, Chinese hamster. As to the method: The extracellular fluid (i.e., medium) of cultured CHO cells was replaced by BSS containing calcium. One minute later, a test compound was added. Two minutes later, 10 μM ATP was added. The IICR-inhibiting action levels at different compound concentrations after the addition of ATP were determined as the percentage of inhibition (%) by evaluating the influence of the compound on the degree of increase in the intracellular calcium concentration.
as §1

Consider `O=C(CCN1CCCC1O)c1ccc(Br)s1` (centres unmarked) [Example 345, 2-(N-2-hydroxypyrrolidino)aminoethyl-5-bromo-2-thienylketone], for which, in experiment [1], the inhibition at 10 µM was 0%, the inhibition at 30 µM stood at 0% and the inhibition at 100 µM was 10%. Besides, in experiment [2], the inhibition at 10 µM came out at 0%, the inhibition at 30 µM came out at 20% and the inhibition at 100 µM amounted to 70%.

Consider `CC(C)N(CCC(=O)c1ccc(Br)s1)C(C)C` [Example 395, 2-diisopropylaminoethyl-5-bromo-2-thienylketone], for which, in experiment [1], the inhibition at 10 µM was determined as 20%, the inhibition at 30 µM was found to be 40% and the inhibition at 100 µM came to 50%. In addition, in experiment [2], the inhibition at 10 µM came to 14%, the inhibition at 30 µM worked out at 67% and the inhibition at 100 µM is 83%.

As for `COC(=O)C(CSSCC(NCCC(=O)c1ccc(I)s1)C(=O)OC)NCCC(=O)c1ccc(I)s1` (centres unmarked) [Example 406, N,N-bis(5-iodo-2-thiophenoylethyl)cystinemethylester], in experiment [1], the inhibition at 10 µM turned out to be 20%, the inhibition at 30 µM amounted to 40% and the inhibition at 100 µM amounted to 50%. In addition, in experiment [2], the inhibition at 10 µM came to 49%, the inhibition at 30 µM turned out to be 43% and the inhibition at 100 µM was 62%.

Take `CCN(CO)CCC(=O)c1ccc(Br)s1` [Example 362, 2-(N-hydroxymethyl-N-ethyl)aminoethyl-5-bromo-2-thienylketone]: in experiment [1], the inhibition at 10 µM stood at 11%, the inhibition at 30 µM came out at 13% and the inhibition at 100 µM came out at 23%. For the same molecule, in experiment [2], the inhibition at 10 µM amounted to 0%, the inhibition at 30 µM was 0% and the inhibition at 100 µM turned out to be 70%.

As to `CCC(C)N(CCC(=O)c1sccc1Br)C(C)CC` (centres unmarked) [Example 413], in experiment [1], the inhibition at 10 µM came to 20%, the inhibition at 30 µM was 40% and the inhibition at 100 µM stood at 50%. Further, in experiment [2], the inhibition at 10 µM worked out at 48%, the inhibition at 30 µM turned out to be 81% and the inhibition at 100 µM worked out at 78%.

As for `COC(=O)C(CSSCC(NCCC(=O)c1cnccn1)C(=O)OC)NCCC(=O)c1cnccn1` (centres unmarked) [Example 402, N,N-bis(2-pyrazinoylethyl)cystinemethylester], in experiment [1], the inhibition at 10 µM came to 20%, the inhibition at 30 µM turned out to be 40% and the inhibition at 100 µM worked out at 50%. Also, in experiment [2], the inhibition at 10 µM turned out to be 39%, the inhibition at 30 µM came to 12% and the inhibition at 100 µM worked out at 28%.

`Cc1ccc(C(=O)CCN(CCO)CCO)o1` [Example 145, 2-(N-bishydroxyethyl)aminoethyl-5-methyl-2-furylketone]: in experiment [1], the inhibition at 10 µM was determined as 0%, the inhibition at 30 µM was determined as 10% and the inhibition at 100 µM turned out to be 20%. In addition, in experiment [2], the inhibition at 10 µM was found to be 50%, the inhibition at 30 µM turned out to be 30% and the inhibition at 100 µM amounted to 30%.

Regarding `O=C(CCNCCCCNCCC(=O)c1cnccn1)c1cnccn1` [Example 276, N,N-bis(2-pyrazoylethyl)tetramethylenediamine], in experiment [1], the inhibition at 30 µM worked out at 0% and the inhibition at 100 µM stood at 0%. In addition, in experiment [2], the inhibition at 10 µM is 0%, the inhibition at 30 µM was determined as 0% and the inhibition at 100 µM was 20%.

In the case of `CN(CCO)CCC(=O)c1ccc2ccccc2c1` [Example 100, 2-(N-methylhydroxyethyl)aminoethyl-2-naphthylketone], in experiment [1], the inhibition at 10 µM turned out to be 0%, the inhibition at 30 µM amounted to 0% and the inhibition at 100 µM was found to be 20%. Further, in experiment [2], the inhibition at 10 µM was determined as 0%, the inhibition at 30 µM came out at 0% and the inhibition at 100 µM worked out at 60%.

On to `CCC(CO)(CO)NCCC(=O)c1cccc2ccccc12` [Example 141], for which, in experiment [1], the inhibition at 10 µM amounted to 0%, the inhibition at 30 µM amounted to 0% and the inhibition at 100 µM is 0%. Further, in experiment [2], the inhibition at 10 µM is 20%, the inhibition at 30 µM was 20% and the inhibition at 100 µM was found to be 20%.

Consider `CN(CCO)CCC(=O)c1cccn1C` [Example 167, 2-(N-methyl-2-hydroxyethyl)aminoethyl-2-(N-methylpyrrolyl)ketone], for which, in experiment [1], the inhibition at 10 µM stood at 0%, the inhibition at 30 µM is 0% and the inhibition at 100 µM was determined as 0%. In experiment [2], the inhibition at 10 µM was 0%, the inhibition at 30 µM was determined as 0% and the inhibition at 100 µM turned out to be 0%.

With `CC(C)(C)N(CCC(=O)c1ccccn1)Cc1ccccc1` [Example 94, 2-(N-t-butylbenzyl)aminoethyl-2-pyridylketone], in experiment [1], the inhibition at 10 µM worked out at 0%, the inhibition at 30 µM turned out to be 0% and the inhibition at 100 µM was determined as 0%. In experiment [2], the inhibition at 10 µM is 30%, the inhibition at 30 µM was determined as 90% and the inhibition at 100 µM is 100%.

For the molecule `COc1ccc(C(=O)CCN(C)Cc2ccccc2)cc1` [Example 76, 2-(N-methylbenzyl)aminoethyl-4-methoxyphenylketone], in experiment [1], the inhibition at 10 µM was 0%, the inhibition at 30 µM turned out to be 10% and the inhibition at 100 µM turned out to be 20%. In experiment [2], the inhibition at 10 µM was determined as 0%, the inhibition at 30 µM stood at 10% and the inhibition at 100 µM is 30%.

In the case of `CCC(CO)(CO)NCCC(=O)c1ccc(Br)s1` [Example 365, 2-(N-1,1-bishydroxymethylpropyl)aminoethyl-5-bromo-2-thienylketone], in experiment [1], the inhibition at 10 µM turned out to be 0%, the inhibition at 30 µM worked out at 0% and the inhibition at 100 µM was 10%. Besides, in experiment [2], the inhibition at 10 µM came out at 0%, the inhibition at 30 µM came to 0% and the inhibition at 100 µM is 70%.

As to `CN(CCO)CCC(=O)c1ccncc1` [Example 262, 2-(N-2-hydroxyethylmethyl)aminoethyl-4-pyridylketone], in experiment [1], the inhibition at 10 µM turned out to be 0%, the inhibition at 30 µM came out at 0% and the inhibition at 100 µM was found to be 0%. Besides, in experiment [2], the inhibition at 10 µM was found to be 0%, the inhibition at 30 µM was 0% and the inhibition at 100 µM is 70%.

For the molecule `Cc1ccc(C(=O)CCNCCO)s1` [Example 306, 2-(N-hydroxyethyl)aminoethyl-5-methyl-2-thienylketone], in experiment [1], the inhibition at 10 µM was 10%, the inhibition at 30 µM amounted to 20% and the inhibition at 100 µM worked out at 30%. Moreover, in experiment [2], the inhibition at 10 µM is 50%, the inhibition at 30 µM came to 20% and the inhibition at 100 µM worked out at 30%.

Turning to `O=C(CCN(CCO)Cc1ccccc1)c1cccnc1` [Example 177, 2-(N-2-hydroxyethylbenzyl)aminoethyl-3-pyridylketone], in experiment [1], the inhibition at 10 µM was found to be 0%, the inhibition at 30 µM stood at 0% and the inhibition at 100 µM came to 0%. For the same molecule, in experiment [2], the inhibition at 10 µM was 0%, the inhibition at 30 µM was 0% and the inhibition at 100 µM was found to be 50%.

As to `Cc1ccc(C(=O)CCN(Cc2ccccc2)C(C)(C)C)cc1` [Example 303, 4-tolyl(N-benzyl-N-t-butyl)aminoethylketone], in experiment [1], the inhibition at 10 µM stood at 0%, the inhibition at 30 µM came to 0% and the inhibition at 100 µM worked out at 0%. Moreover, in experiment [2], the inhibition at 10 µM turned out to be 20%, the inhibition at 30 µM is 20% and the inhibition at 100 µM was 40%.

What is called inhibition is the percentage by which the read-out fell short of the control.

For the origin of these results see patent US8937091B2 (Japan Science and Technology Agency, priority 2009, dated 2015).
